Results: patent publication US20250308622A1, “METHODS FOR PREDICTING TRANSCRIPTION FACTOR ACTIVITY” (THE REGENTS OF THE UNIVERSITY OF COLORADO, A BODY CORPORATE, priority 2017, published 2025)

Experiments:
STAT2 = assay: MD-level time series after Kdo2-lipid A, normalized to time-matched DMSO; assay type: cell-based; settings: mouse T-cells, 1-24 hour time course, relative to time-matched DMSO, FIG. 12E
Method: (§1) The top panel of FIG. 4A indicates the motif displacement distribution, MD-level, and the number of motifs within […] of any eRNA origin before and after stimulation with Nutlin-3a (e.g., Nutlin) on TP53, the transcription factor known to be activated. […] Blue dots indicate a MD-level difference <10^−6.
(§2) In each of the aforementioned perturbations, nascent transcription was assessed at a time point of one hour or less. Therefore, it was determined whether MD-levels could capture transcription factor activity across broader time frames. […] For a number of TFs, MD-levels trend upward at 12.5 minutes and show significant changes within 25 minutes of exposure.
(§3) GEO SRR numbers of these comparisons are outlined in Table 2.

interferon (IRF7) = assay: as above; assay type: cell-based; settings: mouse T-cells, 1-24 hour time course, relative to time-matched DMSO, FIG. 12E
Method: as §1, §2, §3

YBOX1 = assay: as above; assay type: cell-based; settings: mouse T-cells, 1-24 hour time course, relative to time-matched DMSO, FIG. 12E
[1] = system: 641 available TF-motif models; assay: Differential MD-level analysis before/after Nutlin-3a, all available TF-motif models; assay type: cell-based, human; settings: HCT116 cells, of 641 TF-motif models, p-value<10^−6, FIG. 12A
From the text: (§4) The bottom panel of FIG. 4A indicates the change in MD-level (AMDS) following perturbation (y-axis) relative to the number of motifs within 1.5kb of any eRNA origin (x-axis). […] (D) A time series data set following treatment with Flavopiridol Jonkers2014. The y-axis indicates the MD-level change relative to time point 0. Blue dots indicate a MD-level difference <10^−6. A darker shaded line indicates a time trajectory with at least one significant MD-level. (E) Time series data set following treatment with Kdo2-lipid A (KLA) where each time point is normalized to time-matched DMSO Kaikkonen2014. Therefore, the y-axis indicates MD-level difference relative to the time point matched DMSO sample.
(§5) The Motif Displacement score (MD-level) relates the proportion of significant motif sites within some window 2*h divided by the total number of motifs against some larger window 2*H centered at all bidirectional origin events. It is calculated on a per PWM binding model basis.
Let Xj={x1,x2, . . . } be the set of bidirectional origin locations genome wide for some experiment j. Let Yi={y1,y2, . . . } be the set of all significant motif sites for some TF-DNA binding motif model i genome wide, which is static as it only depends on the genome build of interest. Therefore the set of all MD-levels is calculated by equation 10. […]

E4F1 = assay: MD-level time series after flavopiridol; assay type: cell-based; settings: mouse embryonic cells, time series 0-50 minutes relative to time point 0, FIG. 12D
From the text: as §4
(§6) In each of the aforementioned perturbations, nascent transcription was assessed at a time point of one hour or less.
(§7) FIG. 12D data set following treatment with Flavopiridol Jonkers2014. The y-axis indicates the MD-level change relative to time point 0. […]
as §5
(§8) Let Xj={x1,x2, . . . } be the set of bidirectional origin locations genome wide for some experiment j. […] Therefore the set of all MD-levels is calculated by equation 10. […]

TP53 = assay: MD-level time series after flavopiridol; assay type: cell-based; settings: mouse embryonic cells, time series 0-50 minutes relative to time point 0, FIG. 12D
From the text: as §4, §6, §7, §5, §8

TFs = assay: MD-level time series after flavopiridol, all TFs; assay type: cell-based; settings: mouse embryonic cells
From the text: as §4, §6, §7, §5, §8

## CCCCCCCCCCCCCC(=O)O[C@H](CCCCCCCCCCC)CC(=O)O[C@@H]1[C@@H](NC(=O)C[C@@H](CCCCCCCCCCC)OC(=O)CCCCCCCCCCC)[C@H](OC[C@H]2O[C@H](OP(=O)(O)O)[C@H](NC(=O)C[C@H](O)CCCCCCCCCCC)[C@@H](OC(=O)C[C@H](O)CCCCCCCCCCC)[C@@H]2O)O[C@H](CO[C@]2(C(=O)O)C[C@@H](O[C@]3(C(=O)O)C[C@@H](O)[C@@H](O)[C@@H]([C@H](O)CO)O3)[C@@H](O)[C@@H]([C@H](O)CO)O2)[C@H]1OP(=O)(O)O [Kdo2-lipid A]
STAT2
  shifts in MD-level of STAT2: dynamic and time-ordered shifts
Interferon (IRF7)
  shifts in MD-level of interferon (IRF7): dynamic and time-ordered shifts
YBOX1
  change in co-localization (MD-level) of YBOX1: decreased in co-localization

## COc1ccc(C2=N[C@@H](c3ccc(Cl)cc3)[C@@H](c3ccc(Cl)cc3)N2C(=O)N2CCNC(=O)C2)c(OC(C)C)c1 [Nutlin-3a]
[1]
  TF-motif models displaying elevated MD-levels following treatment: only TP53 and TP63

## CN1CC[C@H](c2c(O)cc(O)c3c(=O)cc(-c4ccccc4Cl)oc23)[C@H](O)C1 [flavopiridol]
E4F1
  change in MD-level of E4F1: dramatic and monotonic increase
TP53
  change in MD-level of TP53: dramatic and monotonic increase
TFs; 12.5 minutes of exposure
  MD-levels at 12.5 minutes, a number of TFs: trend upward
TFs; significance p<10^−6
  time of exposure to significant changes in MD-levels, a number of TFs: ≤ 25 min
